Data published in article PMC8286840, “Identifying SARS-CoV-2 antiviral compounds by screening for small molecule inhibitors of Nsp3 papain-like protease” (Biochemical Journal, 2021).
Where a name gives a salt, the structure may show the parent alone. Read-outs that look alike come from different tables or passages of the source.

Experiments:
[1] = target: T1, SARS-CoV-2 PLpro (nsp3 1564–1878) (Severe acute respiratory syndrome coronavirus 2, UniProt P0DTD1); assay: biochemical; design: FRET-quenched peptide (Pro3) cleavage by PLpro, 10 min pre-incubation, slope over 20 min, normalised to no-compound control; details: high concentration screen, read-out: % of control remaining
[2] = target: T1, SARS-CoV-2 PLpro (nsp3 1564–1878); assay: biochemical; design: FRET-quenched peptide (Pro3) cleavage by PLpro, 10 min pre-incubation, slope over 20 min, normalised to no-compound control; details: low concentration screen, read-out: % of control remaining

## CC1=C(/C=C/C(C)=C/C=C/C(C)=C/C=C/C=C(C)/C=C/C=C(C)/C=C/C2=C(C)C(=O)CCC2(C)C)C(C)(C)CCC1=O [Canthaxanthin]
[1]; Well no.=1791
  remaining activity at 3.75 µM: 104%
[1]; Well no.=4147
  remaining activity at 3.75 µM: 100%
[2]; Well no.=1791
  remaining activity at 1.25 µM: 105%
[2]; Well no.=4147
  remaining activity at 1.25 µM: 93.8%

## CCn1ccnc1CC1COc2ccccc2O1 (centres unmarked) [Imiloxan hydrochloride]
[1]; Well no.=1063
  remaining activity at 3.75 µM: 97%
[2]; Well no.=1063
  remaining activity at 1.25 µM: 97.9%

## C[N+]1(C)[C@@H]2C[C@@H](OC(=O)C(O)(c3cccs3)c3cccs3)C[C@H]1[C@@H]1O[C@@H]12 [Tiotropium (Bromide)]
[1]; Well no.=7533
  remaining activity at 3.75 µM: 95.1%
[2]; Well no.=7533
  remaining activity at 1.25 µM: 96.7%

## CCCCCCCCCCCCCCCC(=O)O [Palmitic acid]
[1]; Well no.=7077
  remaining activity at 3.75 µM: 94.2%
[2]; Well no.=7077
  remaining activity at 1.25 µM: 98.9%

## COc1nccc(-c2c(-c3ccc(F)cc3)ncn2C2CCNCC2)n1 [SB242235]
[1]; Well no.=2701
  remaining activity at 3.75 µM: 105%
[2]; Well no.=2701
  remaining activity at 1.25 µM: 105%

## C/C=C/c1ccc(OC)cc1 [Anethole, trans-]
[1]; Well no.=1916
  remaining activity at 3.75 µM: 95.1%
[2]; Well no.=1916
  remaining activity at 1.25 µM: 97.9%

## C[C@H]1C[C@@H]2[C@H]([C@@H](O)C[C@@]3(C)[C@H]2CC[C@]3(O)C(=O)CO)[C@@]2(C)C=CC(=O)C=C12 [Methylprednisolone]
[1]; Well no.=1957
  remaining activity at 3.75 µM: 99.7%
[1]; Well no.=6179
  remaining activity at 3.75 µM: 95.1%
[2]; Well no.=1957
  remaining activity at 1.25 µM: 100%
[2]; Well no.=6179
  remaining activity at 1.25 µM: 95.4%

## Cc1cc(NC(=O)CS(=O)(=O)c2cn(Cc3cc(Br)ccc3F)c3ccccc23)no1 [ML169]
[1]; Well no.=5507
  remaining activity at 3.75 µM: 97.5%
[2]; Well no.=5507
  remaining activity at 1.25 µM: 99%

## CC(=O)Oc1cc(C(C)C)c(OCCN(C)C)cc1C [Moxisylyte (hydrochloride)]
[1]; Well no.=7424
  remaining activity at 3.75 µM: 97.7%
[2]; Well no.=7424
  remaining activity at 1.25 µM: 94%

## COC1=C(OC)C(=O)C(CCCCCCCCCCO)=C(C)C1=O [Idebenone]
[1]; Well no.=1616
  remaining activity at 3.75 µM: 99.2%
[1]; Well no.=3859
  remaining activity at 3.75 µM: 105%
[2]; Well no.=1616
  remaining activity at 1.25 µM: 103%
[2]; Well no.=3859
  remaining activity at 1.25 µM: 104%

## CCOC(=O)CCNc1cc(N2CCc3ccccc3CC2)nc(-c2ccccn2)n1 [GSK-J4]
[1]; Well no.=5779
  remaining activity at 3.75 µM: 106%
[2]; Well no.=5779
  remaining activity at 1.25 µM: 106%

## CCOc1ccccc1OCCN[C@H](C)Cc1ccc(OC)c(S(N)(=O)=O)c1 [Tamsulosin]
[1]; Well no.=2295
  remaining activity at 3.75 µM: 95.1%
[1]; Well no.=7386
  remaining activity at 3.75 µM: 94.5%
[2]; Well no.=2295
  remaining activity at 1.25 µM: 95%
[2]; Well no.=7386
  remaining activity at 1.25 µM: 98.7%

## C=CC[C@@H]1/C=C(\C)C[C@H](C)C[C@H](OC)[C@H]2O[C@@](O)(C(=O)C(=O)N3CCCC[C@H]3C(=O)O[C@H](/C(C)=C/[C@@H]3CC[C@@H](O)[C@H](OC)C3)[C@H](C)[C@@H](O)CC1=O)[C@H](C)C[C@@H]2OC [FK-506 (Tacrolimus)]
[1]; Well no.=5168
  remaining activity at 3.75 µM: 97.7%
[2]; Well no.=5168
  remaining activity at 1.25 µM: 94%

## O=C(Nc1ncc(SCCN2CCCC2)s1)[C@]1(c2ccc(S(=O)(=O)C3CC3)cc2)C[C@H]1C1CCCCC1 [LY2608204]
[1]; Well no.=4772
  remaining activity at 3.75 µM: 99.2%
[2]; Well no.=4772
  remaining activity at 1.25 µM: 100%

## C[C@@H]1CC[C@H]2[C@](C)(CO)[C@@H](O)CC[C@]2(C)[C@@]12CC[C@@](CO)(CCO)O2 [Lagochiline]
[1]; Well no.=3651
  remaining activity at 3.75 µM: 101%
[2]; Well no.=3651
  remaining activity at 1.25 µM: 100%

## O[C@H]1[C@H](O)[C@@H](O)[C@H](O)[C@@H](O)[C@@H]1O [scyllo -Inositol]
[1]; Well no.=5379
  remaining activity at 3.75 µM: 102%
[2]; Well no.=5379
  remaining activity at 1.25 µM: 104%

## Cc1ccccc1N1C(=O)c2cc(S(N)(=O)=O)c(Cl)cc2NC1C (centres unmarked) [Metolazone]
[1]; Well no.=943
  remaining activity at 3.75 µM: 95.6%
[1]; Well no.=8212
  remaining activity at 3.75 µM: 90.4%
[2]; Well no.=943
  remaining activity at 1.25 µM: 102%
[2]; Well no.=8212
  remaining activity at 1.25 µM: 94.6%

## O=C(O)C1=CC(=C(c2ccc(O)c(C(=O)O)c2)c2ccc(O)c(C(=O)O)c2)C=CC1=O [Aurintricarboxylic acid]
[1]; Well no.=249
  remaining activity at 3.75 µM: 109%
[2]; Well no.=249
  remaining activity at 1.25 µM: 97.6%

## CN1CC[C@@H](NC(=O)Nc2ccc(C#N)cc2)C[C@@H]1c1nc2ccccc2[nH]1 [PF-04449913 maleate salt]
[1]; Well no.=5703
  remaining activity at 3.75 µM: 99.8%
[2]; Well no.=5703
  remaining activity at 1.25 µM: 104%

## O=C(c1cn(Cc2cncn2Cc2ccc(Br)cc2)cc1-c1cccc2ccccc12)N1CCOCC1 [LB42708]
[1]; Well no.=8766
  remaining activity at 3.75 µM: 91.4%
[2]; Well no.=8766
  remaining activity at 1.25 µM: 99.3%

## CCc1cc2c(cc1CC)CC(NC[C@H](O)c1ccc(O)c3[nH]c(=O)ccc13)C2 [Indacaterol (maleate)]
[1]; Well no.=8199
  remaining activity at 3.75 µM: 95%
[2]; Well no.=8199
  remaining activity at 1.25 µM: 105%

## CC1(C)O[C@H]2CC(=O)OC[C@]23[C@H]2CC[C@@]4(C)[C@H](c5ccoc5)OC(=O)[C@H]5O[C@]54[C@]2(C)C(=O)C[C@@H]13 [Limonin]
[1]; Well no.=3655
  remaining activity at 3.75 µM: 102%
[2]; Well no.=3655
  remaining activity at 1.25 µM: 99.2%

## COc1cc(C(=O)OCCCCNC(=N)N)cc(OC)c1O [4-{[amino(imino)methyl]amino}butyl 4-hydroxy-3,5-dimethoxybenzoate]
[1]; Well no.=5718
  remaining activity at 3.75 µM: 98.3%
[2]; Well no.=5718
  remaining activity at 1.25 µM: 93.5%

## CCCCC/C=C\C[C@@H]1O[C@H]1/C=C/C(O)C/C=C\CCCC(=O)O (some centres unmarked) [Hepoxilin A3]
[1]; Well no.=4339
  remaining activity at 3.75 µM: 106%
[2]; Well no.=4339
  remaining activity at 1.25 µM: 107%

## Nc1ccc(C(=O)NCC(=O)O)cc1 [4-Aminohippuric Acid]
[1]; Well no.=5181
  remaining activity at 3.75 µM: 95.3%
[1]; Well no.=6349
  remaining activity at 3.75 µM: 103%
[2]; Well no.=5181
  remaining activity at 1.25 µM: 95.9%
[2]; Well no.=6349
  remaining activity at 1.25 µM: 105%

## Cc1cc([N+](=O)[O-])ccc1NS(=O)(=O)c1cc(Cl)ccc1Cl [FH535]
[1]; Well no.=8814
  remaining activity at 3.75 µM: 98.3%
[2]; Well no.=8814
  remaining activity at 1.25 µM: 96.3%

## CSC(=N)NCCC[C@H](N)C(=O)O [S-Methyl-L-thiocitrulline acetate]
[1]; Well no.=1024
  remaining activity at 3.75 µM: 101%
[2]; Well no.=1024
  remaining activity at 1.25 µM: 101%

## CCCCC[C@H](O)/C=C/[C@H]1OC(O)C[C@H](O)[C@@H]1C/C=C\CCCC(=O)O (some centres unmarked) [Thromboxane B2]
[1]; Well no.=4286
  remaining activity at 3.75 µM: 98.5%
[2]; Well no.=4286
  remaining activity at 1.25 µM: 99.3%

## O=C1Cc2c([nH]c3ccc([N+](=O)[O-])cc23)-c2ccccc2N1 [Alsterpaullone]
[1]; Well no.=255
  remaining activity at 3.75 µM: 106%
[1]; Well no.=2314
  remaining activity at 3.75 µM: 105%
[2]; Well no.=255
  remaining activity at 1.25 µM: 104%
[2]; Well no.=2314
  remaining activity at 1.25 µM: 101%

## OC[C@@H](O)CN1CCN(c2ccccc2)CC1 [Levodropropizine]
[1]; Well no.=6189
  remaining activity at 3.75 µM: 82.2%
[2]; Well no.=6189
  remaining activity at 1.25 µM: 97.3%
